How the values were obtained:
Type in all cases: cell-based
human TLR7 = human TLR7 (Homo sapiens (Human), UniProt Q9NYK1); experiment: TLR7 inhibition reporter assay (HEK-Blue, SEAP); details: HEK-Blue cells overexpressing human TLR7, gardiquimod 7.5 μM stimulation
Outline: (§1)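 Reporter cells, NF-κB/AP-1-driven SEAP; cmpd 0.05 nM–50 μM final, 30 min RT pre-treat; stim gardiquimod 7.5 μM (TLR7), R848 15.9 μM (TLR8), ODN2006 5 nM (TLR9); 22 h 37 °C; % inhibition of SEAP signal.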

human TLR9 = human TLR9 (Homo sapiens (Human), UniProt Q9NR96); experiment: TLR9 inhibition reporter assay (HEK-Blue, SEAP); details: HEK-Blue cells overexpressing human TLR9, ODN2006 5 nM stimulation
human TLR9, sequence (Q9NR96 26-1032): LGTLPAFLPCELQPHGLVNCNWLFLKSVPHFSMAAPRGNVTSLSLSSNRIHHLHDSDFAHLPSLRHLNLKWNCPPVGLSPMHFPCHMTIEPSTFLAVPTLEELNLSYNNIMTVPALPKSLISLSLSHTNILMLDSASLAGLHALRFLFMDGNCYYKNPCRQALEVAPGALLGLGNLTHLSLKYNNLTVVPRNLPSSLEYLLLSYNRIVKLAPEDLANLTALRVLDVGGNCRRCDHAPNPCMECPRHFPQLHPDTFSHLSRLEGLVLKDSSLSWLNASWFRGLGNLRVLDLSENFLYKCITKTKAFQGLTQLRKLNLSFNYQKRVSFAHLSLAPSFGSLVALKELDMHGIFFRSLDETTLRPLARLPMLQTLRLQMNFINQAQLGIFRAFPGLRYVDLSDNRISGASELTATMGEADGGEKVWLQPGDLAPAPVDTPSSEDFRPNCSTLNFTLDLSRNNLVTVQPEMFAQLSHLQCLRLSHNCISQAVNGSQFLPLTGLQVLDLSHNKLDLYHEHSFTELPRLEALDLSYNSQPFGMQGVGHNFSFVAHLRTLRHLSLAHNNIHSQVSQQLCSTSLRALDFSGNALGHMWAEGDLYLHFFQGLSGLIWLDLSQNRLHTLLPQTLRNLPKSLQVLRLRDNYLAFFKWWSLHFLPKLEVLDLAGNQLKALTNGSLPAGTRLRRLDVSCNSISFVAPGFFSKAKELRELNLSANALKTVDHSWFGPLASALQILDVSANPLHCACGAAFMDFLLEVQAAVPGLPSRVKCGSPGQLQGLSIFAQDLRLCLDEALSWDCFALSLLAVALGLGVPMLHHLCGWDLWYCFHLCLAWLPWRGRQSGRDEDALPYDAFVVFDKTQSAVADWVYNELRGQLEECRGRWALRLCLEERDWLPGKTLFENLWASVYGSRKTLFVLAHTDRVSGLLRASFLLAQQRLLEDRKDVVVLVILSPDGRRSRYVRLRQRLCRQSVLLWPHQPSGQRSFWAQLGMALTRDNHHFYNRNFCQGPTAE
Outline: as §1

human TLR8 = human TLR8 (Homo sapiens (Human), UniProt Q9NR97); experiment: TLR8 inhibition reporter assay (HEK-Blue, SEAP); details: HEK-Blue cells overexpressing human TLR8, R848 15.9 μM stimulation
human TLR8, sequence (Q9NR97 27-1041): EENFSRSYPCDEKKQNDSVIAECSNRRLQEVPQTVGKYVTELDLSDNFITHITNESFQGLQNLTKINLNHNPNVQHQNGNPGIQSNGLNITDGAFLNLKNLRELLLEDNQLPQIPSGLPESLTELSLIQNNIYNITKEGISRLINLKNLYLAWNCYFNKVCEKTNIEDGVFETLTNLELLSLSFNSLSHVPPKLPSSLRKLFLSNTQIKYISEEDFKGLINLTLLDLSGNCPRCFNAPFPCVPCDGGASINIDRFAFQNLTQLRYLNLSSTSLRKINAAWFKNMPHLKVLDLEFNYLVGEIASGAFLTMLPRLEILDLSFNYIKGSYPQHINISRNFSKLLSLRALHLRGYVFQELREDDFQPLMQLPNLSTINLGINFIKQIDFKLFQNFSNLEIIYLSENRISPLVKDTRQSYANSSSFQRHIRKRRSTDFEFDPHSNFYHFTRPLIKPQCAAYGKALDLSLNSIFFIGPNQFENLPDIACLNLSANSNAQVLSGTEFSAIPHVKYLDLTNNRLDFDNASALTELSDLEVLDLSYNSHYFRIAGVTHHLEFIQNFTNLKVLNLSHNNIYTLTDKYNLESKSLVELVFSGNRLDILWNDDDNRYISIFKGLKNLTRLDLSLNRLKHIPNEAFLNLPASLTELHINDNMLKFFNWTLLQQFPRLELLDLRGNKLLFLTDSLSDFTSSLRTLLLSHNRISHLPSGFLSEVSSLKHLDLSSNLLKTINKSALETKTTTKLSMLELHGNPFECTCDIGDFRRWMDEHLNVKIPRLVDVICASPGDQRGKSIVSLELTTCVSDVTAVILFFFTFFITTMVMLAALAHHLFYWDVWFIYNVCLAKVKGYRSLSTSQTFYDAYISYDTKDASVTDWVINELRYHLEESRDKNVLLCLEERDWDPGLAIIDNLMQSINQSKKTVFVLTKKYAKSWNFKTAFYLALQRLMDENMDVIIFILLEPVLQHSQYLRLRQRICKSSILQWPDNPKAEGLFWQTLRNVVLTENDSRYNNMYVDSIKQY
Outline: as §1

human TLR7, sequence (Q9NYK1 27-1049): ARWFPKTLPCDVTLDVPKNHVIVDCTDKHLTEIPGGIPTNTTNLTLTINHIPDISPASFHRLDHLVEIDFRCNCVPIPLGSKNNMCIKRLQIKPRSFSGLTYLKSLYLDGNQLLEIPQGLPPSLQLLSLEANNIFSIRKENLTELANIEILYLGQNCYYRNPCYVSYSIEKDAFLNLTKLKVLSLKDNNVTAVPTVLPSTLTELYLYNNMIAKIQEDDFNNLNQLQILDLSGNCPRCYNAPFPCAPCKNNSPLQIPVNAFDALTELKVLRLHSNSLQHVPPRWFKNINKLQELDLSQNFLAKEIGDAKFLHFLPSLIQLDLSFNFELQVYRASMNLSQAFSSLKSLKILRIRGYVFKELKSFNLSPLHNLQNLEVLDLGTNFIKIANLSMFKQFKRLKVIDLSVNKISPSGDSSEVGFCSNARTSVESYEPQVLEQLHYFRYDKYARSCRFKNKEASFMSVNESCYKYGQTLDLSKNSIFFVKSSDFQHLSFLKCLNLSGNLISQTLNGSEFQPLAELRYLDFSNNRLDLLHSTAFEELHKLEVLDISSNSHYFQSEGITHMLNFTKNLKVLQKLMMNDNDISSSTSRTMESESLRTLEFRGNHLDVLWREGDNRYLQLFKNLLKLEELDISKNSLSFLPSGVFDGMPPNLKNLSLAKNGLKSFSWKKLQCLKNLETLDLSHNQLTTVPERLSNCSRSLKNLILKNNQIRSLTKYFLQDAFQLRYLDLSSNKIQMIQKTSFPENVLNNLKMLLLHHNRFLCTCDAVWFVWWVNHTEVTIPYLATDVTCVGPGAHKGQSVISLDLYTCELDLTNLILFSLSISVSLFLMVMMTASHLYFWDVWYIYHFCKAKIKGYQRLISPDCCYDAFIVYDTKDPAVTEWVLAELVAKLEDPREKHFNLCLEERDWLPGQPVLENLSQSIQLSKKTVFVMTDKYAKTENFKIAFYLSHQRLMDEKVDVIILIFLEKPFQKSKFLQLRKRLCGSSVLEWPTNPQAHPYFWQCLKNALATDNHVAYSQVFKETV

Row | Compound | IC50 (human TLR7) [nM] | IC50 (human TLR9) [nM] | IC50 (human TLR8) [nM]
1 | Cc1cc(-c2[nH]c3ccc(-c4nc(C(=O)NCCC5CCCN5)co4)cc3c2C(C)C)cc(C)n1 (stereo not drawn) [Example 291, 2-(2-(2,6-dimethylpyridin-4-yl)-3-isopropyl-1H-indol-5-yl)-N-(2-(pyrrolidin-2-yl)ethyl)oxazole-4-carboxamide] | 67 | 494 | 23
2 | COc1ccc(-c2[nH]c3ccc(-c4nc(C(=O)N5CC6CNCC6C5)co4)cc3c2C(C)C)cc1OC (stereo not drawn) [Example 127, (2-(2-(3,4-dimethoxyphenyl)-3-isopropyl-1H-indol-5-yl)oxazol-4-yl)(hexahydropyrrolo[3,4-c]pyrrol-2(1H)-yl)methanone] | 21 | 1580 | 6.5
3 | COc1ccc(-c2[nH]c3ccc(-c4nnc(C(=O)N5CCC(N6CCOCC6)C5)o4)cc3c2C(C)C)cc1OC (stereo not drawn) [Example 99, (5-(2-(3,4-dimethoxyphenyl)-3-isopropyl-1H-indol-5-yl)-1,3,4-oxadiazol-2-yl)(3-morpholinopyrrolidin-1-yl)methanone] | 565 | 16300 | 86
4 | Cc1cc(-c2[nH]c3ccc(-c4nnc(C5CCCN(C(C)C)C5)o4)cc3c2C(C)C)ccn1 (stereo not drawn) [Example 298, 2-(3-isopropyl-2-(2-methylpyridin-4-yl)-1H-indol-5-yl)-5-(1-isopropylpiperidin-3-yl)-1,3,4-oxadiazole] | 25 | 437 | 2.7
5 | Cc1cc(-c2[nH]c3ccc(-c4ccc(Cl)nc4)cc3c2C(C)C)ccn1 [Example 235, 5-(6-chloropyridin-3-yl)-3-isopropyl-2-(2-methylpyridin-4-yl)-1H-indole] | 667 | > 50000 | 301
6 | CNCC(=O)Nc1cnc(-c2ccc3[nH]c(-c4cc(C)nc(C)c4)c(C(C)C)c3c2)cn1 [Example 356, N-(5-(2-(2,6-dimethylpyridin-4-yl)-3-isopropyl-1H-indol-5-yl)pyrazin-2-yl)-2-(methylamino)acetamide] | 10 | 952 | 4.6
7 | Cc1cc(-c2[nH]c3ccc(-c4nnc([C@@H]5CCCN(C(C)C)C5)o4)cc3c2C(C)C)cc(C)n1 [Example 245, (R)-2-(2-(2,6-dimethylpyridin-4-yl)-3-isopropyl-1H-indol-5-yl)-5-(1-isopropylpiperidin-3-yl)-1,3,4-oxadiazole] | 5.4 | 304 | 1.5
8 | COc1ccc(-c2[nH]c3ccc(-c4nnc(C[C@@H]5CCCN5)o4)cc3c2C(C)C)cc1OC [Example 51, (S)-2-(2-(3,4-dimethoxyphenyl)-3-isopropyl-1H-indol-5-yl)-5-(pyrrolidin-2-ylmethyl)-1,3,4-oxadiazole] | 60 | 1070 | 7.7
9 | Cc1cc(-c2[nH]c3ccc(-c4sc(C5CCNCC5)nc4C)cc3c2C(C)C)ccn1 [Example 201, 5-(3-isopropyl-2-(2-methylpyridin-4-yl)-1H-indol-5-yl)-4-methyl-2-(piperidin-4-yl)thiazole] | 10 | 1840 | 2.9
10 | Cc1cc(-c2[nH]c3ccc(-c4nnc(CCN(C)C)o4)cc3c2C(C)C)ccn1 [Example 143, 2-(5-(3-isopropyl-2-(2-methylpyridin-4-yl)-1H-indol-5-yl)-1,3,4-oxadiazol-2-yl)-N,N-dimethylethan-1-amine] | 47 | 1680 | 0.8
11 | COc1ccc(-c2[nH]c3ccc(-c4nnc(C(=O)N5CC6CNCC6C5)o4)cc3c2C(C)C)cc1OC (stereo not drawn) [Example 61, (5-(2-(3,4-dimethoxyphenyl)-3-isopropyl-1H-indol-5-yl)-1,3,4-oxadiazol-2-yl)(hexahydropyrrolo[3,4-c]pyrrol-2(1H)-yl)methanone] | 51 | 454 | 6.9
12 | COc1ccc(-c2[nH]c3ccc(-c4nnc([C@H]5CCCNC5)o4)cc3c2CC(F)(F)F)cc1OC [compound 57] | 31 | 1470 | 10
13 | COc1ccc(-c2[nH]c3ccc(-c4cnc(N5CCN(CCC(C)O)CC5)nc4)cc3c2C(C)C)cc1OC (stereo not drawn) [Example 431, 4-(4-(5-(2-(3,4-dimethoxyphenyl)-3-isopropyl-1H-indol-5-yl)pyrimidin-2-yl)piperazin-1-yl)butan-2-ol] | 145 | 3300 | 31
14 | CCc1c(-c2ccc(OC)c(OC)c2)[nH]c2ccc(-c3noc([C@@H](N)Cc4c[nH]cn4)n3)cc12 [Example 440, (S)-1-(3-(2-(3,4-dimethoxyphenyl)-3-ethyl-1H-indol-5-yl)-1,2,4-oxadiazol-5-yl)-2-(1H-imidazol-4-yl)ethan-1-amine] | 647 | 19900 | 123
15 | Cc1cc(-c2[nH]c3ccc(-c4ccc(N5CC(C)OC(C)C5)nc4)cc3c2C(C)C)cc(C)n1 (stereo not drawn) [Example 335, 4-(5-(2-(2,6-dimethylpyridin-4-yl)-3-isopropyl-1H-indol-5-yl)pyridin-2-yl)-2,6-dimethylmorpholine] | 166 | 38100 | 106
16 | COc1ccc(-c2[nH]c3ccc(-c4cccc(N5CCNCC5)c4)cc3c2C(C)C)cc1OC [Example 411, 2-(3,4-dimethoxyphenyl)-3-isopropyl-5-(3-(piperazin-1-yl)phenyl)-1H-indole] | 604 | 8430 | 96
17 | COc1ccc(-c2[nH]c3ccc(-c4nnc([C@@H]5CCCNC5)o4)cc3c2C(C)C)cc1OC [Example 55, (R)-2-(2-(3,4-dimethoxyphenyl)-3-isopropyl-1H-indol-5-yl)-5-(piperidin-3-yl)-1,3,4-oxadiazole] | 32 | 1260 | 8.2
18 | COCCNCc1nnc(-c2ccc3[nH]c(-c4ccc(OC)c(OC)c4)c(C(C)C)c3c2)o1 [Example 109, N-((5-(2-(3,4-dimethoxyphenyl)-3-isopropyl-1H-indol-5-yl)-1,3,4-oxadiazol-2-yl)methyl)-2-methoxyethan-1-amine] | 4160 | > 50000 | 301
19 | Cc1cc(-c2[nH]c3ccc(-c4cccc(C(=O)N5CC6CNCC6C5)c4)cc3c2C(C)C)ccn1 (stereo not drawn) [Example 15, (hexahydropyrrolo[3,4-c]pyrrol-2(1H)-yl)(3-(3-isopropyl-2-(2-methylpyridin-4-yl)-1H-indol-5-yl)phenyl)methanone] | 27 | 738 | 6.8
20 | COc1ccc(-c2[nH]c3ccc(-c4cccc(C(=O)N5CCN(c6ccncc6)CC5)c4)cc3c2CC(F)(F)F)cc1OC [Example 36, (3-(2-(3,4-dimethoxyphenyl)-3-(2,2,2-trifluoroethyl)-1H-indol-5-yl)phenyl)(4-(pyridin-4-yl)piperazin-1-yl)methanone] | 287 | 1800 | 102
21 | COc1ccc(-c2[nH]c3ccc(-c4cccc(C(=O)NCCNC(C)=O)c4)cc3c2CC(F)(F)F)cc1OC [Example 26, N-(2-acetamidoethyl)-3-(2-(3,4-dimethoxyphenyl)-3-(2,2,2-trifluoroethyl)-1H-indol-5-yl)benzamide] | 1000 | 32900 | 73
22 | Cc1cc(-c2[nH]c3ccc(-c4nccs4)cc3c2C(C)C)ccn1 [Example 171, 2-(3-isopropyl-2-(2-methylpyridin-4-yl)-1H-indol-5-yl)thiazole] | 159 | > 50000 | 19
23 | Cc1cc(-c2[nH]c3ccc(-c4cc5c(s4)CN(C)CC5)cc3c2C(C)C)cc(C)n1 [Example 361, 2-(2-(2,6-dimethylpyridin-4-yl)-3-isopropyl-1H-indol-5-yl)-6-methyl-4,5,6,7-tetrahydrothieno[2,3-c]pyridine] | 6 | 490 | 1.5
24 | Cc1cc(-c2[nH]c3ccc(-c4ccnc(N)c4)cc3c2C(C)C)ccn1 [Example 200, 4-(3-isopropyl-2-(2-methylpyridin-4-yl)-1H-indol-5-yl)pyridin-2-amine] | 9.6 | 727 | 9.7
25 | CNCCN1CCC(c2nnc(-c3ccc4[nH]c(-c5ccc(OC)c(OC)c5)c(C(C)C)c4c3)o2)CC1 [Example 24, 2-(4-(5-(2-(3,4-dimethoxyphenyl)-3-isopropyl-1H-indol-5-yl)-1,3,4-oxadiazol-2-yl)piperidin-1-yl)-N-methylethan-1-amine] | 56 | 179 | 3.7
26 | CCc1c(-c2ccnc(C)c2)[nH]c2ccc(-c3noc(CCC4CCN(C(C)C)CC4)n3)cc12 [Example 449, 3-(3-ethyl-2-(2-methylpyridin-4-yl)-1H-indol-5-yl)-5-(2-(1-isopropylpiperidin-4-yl)ethyl)-1,2,4-oxadiazole] | 239 | 1360 | 37
27 | CCc1c(-c2ccc(OC)c(OC)c2)[nH]c2ccc(-c3noc(CCNC)n3)cc12 [Example 460, 2-(3-(2-(3,4-dimethoxyphenyl)-3-ethyl-1H-indol-5-yl)-1,2,4-oxadiazol-5-yl)-N-methylethan-1-amine] | 539 | 2680 | 7.3
28 | COc1ccc(-c2[nH]c3ccc(-c4ccnc(C(=O)N5CCCN(C)CC5)c4)cc3c2C(C)C)cc1OC [Example 10, (4-(2-(3,4-dimethoxyphenyl)-3-isopropyl-1H-indol-5-yl)pyridin-2-yl)(4-methyl-1,4-diazepan-1-yl)methanone] | 35 | 673 | 6
